Where two headings read alike, the source gives them in different places.
Columns and labels:
[1] = tested on: metastatic prostate cancer (PC-3) cells; test: Live-cell imaging of PC-3 proliferation, BA or BOA; assay type: cell-based, human; conditions: 48-hour treatment
Method: (§1) One day prior to the treatment, the cells were counted and plated on 24-well plates (Falcon) and incubated overnight at +37° C. (5% CO2). The following day, the cells were treated betulinic acid (BA) or betulonic acid (BOA) in concentrations of 0, 10, 50, 70, 100, and 150 μM. 1% DMSO was used to control for the effects of the solvent. All samples were made in triplicates. The cells were imaged for 48 h with 2 h intervals (9 images per well) using IncuCyte S3 Live-Cell Analysis System (Essen BioScience).

[2] = tested on: normal human dermal fibroblast (HDF) cells
Source text: Results are mean values from three independent experiments (±SEM).

[3] = Cytotoxicity assay of BA and BOA (Cell Counting Kit-8), PC-3; conditions: human, PC-3 metastatic prostate cancer cells
Method: (§2) Cells were seeded with 5000 cells/well on a 96-well plate (Falcon) in RPMI-1640 medium (PC-3 cells) or DMEM medium (WM-266-4 cells) supplemented with 10% fetal bovine serum, 2 mM L-glutamine, 100 U/ml penicillin, and 100 μg/ml streptomycin. The cells were incubating overnight in +37° C., 5% CO2 for the cells to adhere to the plate. The following day, cells were treated with BA or BOA (prepared from stock solutions using DMSO as solvent) in concentrations of 0-200 μM in complete medium in replicate samples and incubated for 48 h. The old medium was thereafter discarded and substituted with 100 μL 10% Cell Counting Kit-8 reagent (Dojindo Molecular Technologies) diluted in serum-free RPMI-1640 medium. The samples were incubated for an additional 1 h prior to analyzing cell viability by measuring the absorbance at 450 nm using a microplate reader (Hidex Sense) according to manufacturer's protocol. Non-treated cells were used as a negative control. 1% DMSO was used to control for effect of solvent. All samples contained 1% or less DMSO. The experiment was repeated at least three independent times for accurate cytotoxicity analysis. The IC50-value was calculated using GraphPad Prism 6 software.

[4] = tested on: metastatic prostate cancer (PC-3) cells; test: as above; conditions: read-out: IC50-value, cell viability, PC-3
Method: as §2

[5] = Cytotoxicity assay of BA and BOA (Cell Counting Kit-8), WM-266-4; conditions: human, WM-266-4 metastatic melanoma cells
Method: as §2

[6] = tested on: metastatic melanoma (WM-266-4) cells; test: as above; conditions: read-out: IC50-value, cell viability, WM-266-4
Method: as §2

[7] = tested on: metastatic melanoma (WM-266-4) cells; test: Live-cell imaging of WM-266-4 proliferation, BOA; assay type: cell-based, human; conditions: 48-hour treatment
Method: as §1

[8] = tested on: metastatic prostate cancer (PC-3) cells; conditions: 100 µM
Method: as §2

[9] = tested on: metastatic melanoma (WM-266-4) cells; conditions: 100 µM
Method: as §2

[10] = 48 h treatment, complete medium

| SMILES | concentration giving maximum decrease of PC-3 proliferation [1] | effect on HDF cell proliferation [2] | viability at 48 h, 100 µM [3] | IC50 ([4]; Homo sapiens, PC-3, 48 h) | viability at 48 h, 100 µM [5] | IC50 ([6]; Homo sapiens, WM 266-4, 48 h) | concentration giving maximal decrease in WM-266-4 proliferation [7] | viability of PC-3 cells [8] | viability of WM-266-4 cells [9] | IC50 [4, 10] | IC50 [6, 10] |
| --- | --- | --- | --- | --- | --- | --- | --- | --- | --- | --- | --- |
| C=C(C)[C@@H]1CC[C@]2(C(=O)O)CC[C@]3(C)[C@H](CC[C@@H]4[C@@]5(C)CC[C@H](O)C(C)(C)[C@@H]5CC[C@]43C)[C@@H]12 [BA, betulinic acid] | 50 µM | neither BA or BOA had any significant effects on HDF cells | ~0% | 68 µM | ~0% | 64.7 µM | – | – | – | – | – |
| C=C(C)[C@@H]1CC[C@]2(C(=O)O)CC[C@]3(C)[C@H](CC[C@@H]4[C@@]5(C)CCC(=O)C(C)(C)[C@@H]5CC[C@]43C)[C@@H]12 [BOA, betulonic acid] | 50 µM | neither BA or BOA had any significant effects on HDF cells | – | – | – | – | 50 µM | below 20% | below 20% | 78.5 µM | 39.8 µM |
